According to patent US9850281B2, “Cladosporium peptides” (Circassia Limited, priority 2012, dated 2017):
Where no end group is shown, it is not given here. [ ]: non-standard residue; d: D form. Nle = CCCC[C@H](N)C(=O)O

Columns and labels:
[1] = system: Peripheral blood mononuclear cells (PBMCs); test: Cytokine release assay (multiplex bead assay IL-10, IL-13, IFN-g) on PBMCs of mould allergic subjects; type: cell-based, human; conditions: 50 mould allergic subjects; for cytokine response in the population (in words): summary of Tables 8-10; for % responders: cytokine release greater than 50 pg/ml in one or more of IL-13, IL-10 and IFN-g, polypeptide 100 μg/ml, 5 days
Procedure: Polypeptides for use in this assay were manufactured at small scale (approximately 10 mg batch size, non-GMP). […] Polypeptides were added to wells in a volume of 100 μl containing polypeptides at a concentration of 200 μg/ml, such that subsequent addition of 100 μl of cells would create a final assay concentration of 100 μg/ml.
Peripheral blood mononuclear cells (PBMCs) were isolated from heparinised blood by Ficoll density gradient centrifugation. A 100 μl aliquot of a 5×10^6 cell/ml PBMC suspension was then added to each well and the plates placed in a humidified 5% CO2 incubator at 37° C. for 5 days. Following stimulation, culture supernatants (100 μl) were harvested for testing by multiplex bead assay.
Multiplex cytokine bead assays (IL-10, IL-13, Interferon gamma (IFN-g)) were performed on thawed culture supernatants according to the manufacturer's instructions. Single measurements were performed for each culture supernatant sample. After completion of the multiplex assay, individual cytokine levels were determined by interpolation from the standard curve generated in the assay. A positive result was taken as a cytokine release of greater than 50 pg/ml in one or more of the IL-13, IL-10 and IFN-g assays. The number of responders out of 50 mould allergic subjects tested was calculated for each polypeptide for the three cytokines.

[2] = system: Peripheral blood mononuclear cells (PBMCs); test: as above; type: cell-based, human; conditions: 50 mould allergic subjects, polypeptide 100 μg/ml, 5 days

Substance	cytokine response in the population (in words) [1]	% responders [1] [%]	% responders (IFN-g release greater than 100 pg/ml) [2] [%]
AEVYQKLKALAKKTYGQ [Alt13A]	top performing	86	–
AEVYQKLKSLTKK [Cla16]	showed responses in the population	36	16
ANYTQTKTVSIRL [Cla29]	showed responses in the population	48	28
GGYKAAVRPT-Nle-LE (GGYKAAVRPT[Nle]LE) [Cla35A]	increased response compared to the polypeptide having the sequence of Cla35	48	–
GGYKAAVRPTMLE [Cla35]	showed responses in the population	34	28
GHHFKERGTGSLVIT [Cla26]	showed responses in the population	44	28
GLHFRERKTGSLVIT [Alt21]	–	38	–
GWGV-Nle-VSHRSGET (GWGV[Nle]VSHRSGET) [Alt14A]	top performing	56	–
GWGVMVSHRSGET [Alt14]	top performing	44	–
GYTGKIKIA-Nle-DVASSE (GYTGKIKIA[Nle]DVASSE) [Alt15A]	top performing	42	–
GYTGKIKIAMDVASSE [Alt15]	top performing	56	–
KLWHS-Nle-IP-Nle-GRDAK (KLWHS[Nle]IP[Nle]GRDAK) [Alt24A]	–	40	–
KLWHSMIP-Nle-GRDAK (KLWHSMIP[Nle]GRDAK) [Alt24C]	–	36	–
KLWHSMIPMGRDAK [Alt24]	–	34	–
LAITYNSRAEGAEK [Alt20]	–	38	–
NEWRDFARVNSISP [Alt23]	–	40	–
VAITYASRAQGAEK [Cla25A]	showed responses in the population	44	22
WSWKIGPAIATGNT [Alt28]	top performing	52	–
